Reference: patent publication US10669271B2, “Heterocyclic compounds as immunomodulators” (Incyte Corporation, priority 2018, dated 2020)

How the values were obtained:
PD-L1 = PD-L1 (Homo sapiens (Human), UniProt Q9NZQ7); test: PD-L1 whole blood internalization assay; assay type: cell-based; conditions: 1 ng/ml human interferon γ, PD-L1 expression on CD14+ cells, read-out: Whole Blood (24 HR) IC50
Experimental: Example D. PD-L1 Whole Blood Internalization Assay
To determine PD-L1 internalization in human whole blood, normal human blood (Biological Specialty Corp, Colmar. Pa.) was incubated in the presence or absence of a concentration range of test compounds and 1 ng/ml human interferon γ (R&D Systems Inc. Minn. […] Blood was then stained with PD-L1 (MIH1, eBioscience; or BD Biosciences San Jose, Calif.), CD14 (Life Technologies, Carlsbad, Calif.) for 30 minutes in the dark at room temperature. Whole Blood/red cells were lysed/fixed (lysis buffer BD Biosciences) for 5 minutes at 37° C. in the dark and then centrifuged at 1600 RPM for 5 minutes. Cells were resuspended in Stain Buffer (BD Bioscience, San Jose, Calif.) and transferred into 96 well round bottom plates (Corning). Cells were gated on CD14+(BD Biosciences) and PD-L1 expression determined by mean fluorescence intensity (MFI) (BD LSRFortessa™ X-20). IC50 determination was performed by fitting the curve of compound percent inhibition versus the log of the compound concentration using the GraphPad Prism 7.0 software.

[1] = system: PD-L1 aAPC/CHO-K1 cells and Jurkat-PD-1-NFAT effector cells; test: Nuclear factor of activated T-cells (NFAT) assay; assay type: cell-based; conditions: Cricetulus griseus; PD-L1 aAPC/CHO-K1 cells with Jurkat-PD-1-NFAT effector cells, 24 hours
Experimental: Example C. Nuclear Factor of Activated T-Cells (NFAT) Assay
PD-L1 aAPC/CHO-Klcells (Promega) were maintained in F-12 medium with addition of 10% FBS, 200 μg/ml Hygromycin B, 250 μg/ml Geneticin (G418). Jurkat-PD-1-NFAT effector cells (Promega) were cultured in RPMI 1640 medium supplemented with 10% FBS, 100 μg/ml Hygromycin B, 500 μg/ml G418. The culture media of PD-L1 aAPC/CHO-K1 cells were first replaced with assay medium (RPMI1640 medium with 1% FBS). The PD-L1 aAPC/CHO-K1 cells were then added in a white 384-well white clear bottom assay plate (CELLCOAT® Tissue Culture Plates, Greiner Bio-One) at 8000 per well in 10 μL assay medium. Test compounds were prepared by serial dilution in DMSO and 0.8 μL test compounds in DMSO were first transferred to the 384 REMP plate well (Thermofisher) by PlateMate Plus (Thermofisher) followed with addition of 50 μL plating medium. 5 μL compounds in the assay medium were transferred to the cells with 0.4% DMSO in the final assay at 2 μM. After removing the culture media, 10,000 Jurkat-PD-1-NFAT effector cells in 5 μL assay medium was dispensed into each well. The assay plate was incubated at 37° C., 5% CO2 for 24 hours. After the assay plate was equilibrated to room temp for 15 minutes, 20 µL/well of Bio-Glo™ reagent (Promega) were added. After 8 minutes incubation at room temperature, luminescence was read at with Pherastar microplate reader (BMG Labtech). The fold of induction (FOI) was calculated based on the ratio of luminescence normalized to the DMSO wells within each assay plate. The maximum percentage of induction was reported based on the ratio between the highest FOI of each compound and the maximum FOI of control compound within each assay plate. Wells with DMSO were served as the negative controls and wells containing control compound with the highest FOI were used as positive controls. EC50 determination was performed by fitting the curve of percent control activity versus the log of the compound concentration using the GraphPad Prism 6.0 software.

[2] = system: U2OS/PD-L1 cells and Jurkat-PD-1-SHP cells; test: Src homology region 2 domain-containing phosphatase (SHP) assay; assay type: cell-based; conditions: Homo sapiens; U2OS/PD-L1 cells with Jurkat-PD-1-SHP cells, 2 hours
Experimental: Example B. Src Homology Region 2 Domain-Containing Phosphatase (SHP) Assay
U2OS/PD-L1 cells (DiscoveRx Corporation) were maintained in McCoy's 5A medium with addition of 10% FBS, 0.25 μg/ml Puromycin. After removing the culture media, the cell medium was replaced with assay medium (RPMI1640 medium with 1% FBS). The U2OS/PD-L1 cells were then added in 384-well black clear bottom assay plate (CELLCOAT® Tissue Culture Plates, Greiner Bio-One) at 5000 cells per well in 20 μL assay medium. Test compounds were prepared by serial dilution in DMSO and 125 nL compound were first transferred to the 384 REMP plate well (Thermofisher) by ECHO liquid handler (Labcyte) followed with addition of 27.5 μL assay medium. 5 μL/well compounds in the assay medium were transferred to the cell plate with 0.05% DMSO in the final assay at 0.5 μM. Jurkat-PD-1-SHP cells (DiscoveRx Corporation) were cultured in RPMI1640 medium supplemented with 10% FBS, 250 μg/ml Hygromycin B, 500 μg/ml G418. After the replacement of culture media with assay medium, 5,000 Jurkat-PD-1-SHP cells in 20 μL were dispensed into each well. The assay plate was incubated at 37° C., 5% CO2 for 2 hours before 2.5 μL PathHunter reagent 1 (DiscoveRx Corporation) were added to each well. The assay plate was shaken for 1 min at 350 rpm in the dark followed with addition of 10 μL PathHunter reagent 2 (DiscoveRx Corporation). Chemiluminescent signal was recorded with TopCount reader (Perkin Elmer) after incubation at room temperature for 1 hour. Wells with DMSO were served as the positive controls and wells containing no cells were used as negative controls. IC50 determination was performed by fitting the curve of percentage of control activity versus the log of the compound concentration using the GraphPad Prism 6.0 software.

PD-1/PD-L1 = PD-1/PD-L1 (Homo sapiens (Human), UniProt Q9NZQ7); test: Homogeneous Time-Resolved Fluorescence (HTRF) PD-1/PD-L1 binding assay; conditions: recombinant human PD-1 and PD-L1, 25° C., pH 7.4
Chain of PD-1/PD-L1 (Q9NZQ7 19-238): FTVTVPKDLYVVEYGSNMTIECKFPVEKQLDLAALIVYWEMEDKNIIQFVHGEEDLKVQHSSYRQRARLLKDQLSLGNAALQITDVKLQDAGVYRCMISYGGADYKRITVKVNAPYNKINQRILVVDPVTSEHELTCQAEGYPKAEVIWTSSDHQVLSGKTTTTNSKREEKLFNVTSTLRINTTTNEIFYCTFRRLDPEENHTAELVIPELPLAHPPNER
Experimental: Example A. Homogeneous Time-Resolved Fluorescence (HTRF) PD-1/PD-L1 Binding Assay
The assays were conducted in a standard black 384-well polystyrene plate with a final volume of 20 μL. Inhibitors were first serially diluted in DMSO and then added to the plate wells before the addition of other reaction components. The final concentration of DMSO in the assay was 1%. The assays were carried out at 25° C. in the PBS buffer (pH 7.4) with 0.05% Tween-20 and 0.1% BSA. Recombinant human PD-L1 protein (19-238) with a His-tag at the C-terminus was purchased from AcroBiosystems (PD1-H5229). Recombinant human PD-1 protein (25-167) with Fc tag at the C-terminus was also purchased from AcroBiosystems (PD1-H5257). PD-L1 and PD-1 proteins were diluted in the assay buffer and 10 μL was added to the plate well. Plates were centrifuged and proteins were preincubated with inhibitors for 40 minutes. The incubation was followed by the addition of 10 μL of HTRF detection buffer supplemented with Europium cryptate-labeled anti-human IgG (PerkinElmer-AD0212) specific for Fc and anti-His antibody conjugated to SureLight®-Allophycocyanin (APC, PerkinElmer-AD0059H). After centrifugation, the plate was incubated at 25° C. for 60 min. before reading on a PHERAstar FS plate reader (665 nm/620 nm ratio). Final concentrations in the assay were—3 nM PD1,10 nM PD-L1, 1 nM europium anti-human IgG and 20 nM anti-His-Allophycocyanin. IC50 determination was performed by fitting the curve of percent control activity versus the log of the inhibitor concentration using the GraphPad Prism 5.0 software.

Chain of PD-L1 (Q9NZQ7 19-290): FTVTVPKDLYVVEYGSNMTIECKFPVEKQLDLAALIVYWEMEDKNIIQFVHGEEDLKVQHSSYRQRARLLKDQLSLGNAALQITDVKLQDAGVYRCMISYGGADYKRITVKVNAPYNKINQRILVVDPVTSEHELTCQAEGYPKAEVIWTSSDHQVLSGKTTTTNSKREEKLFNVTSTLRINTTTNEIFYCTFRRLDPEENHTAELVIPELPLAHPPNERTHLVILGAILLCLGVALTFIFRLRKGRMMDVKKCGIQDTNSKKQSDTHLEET

| IC50 (PD-L1) [nM] | IC50 [2] [nM] | IC50 (PD-1/PD-L1) [nM] | SMILES | EC50 [1] [nM] |
| --- | --- | --- | --- | --- |
| 10 to 100 | ≤ 10 | ≤ 10 | Cc1nc(Nc2cccc(-c3cccc(-c4nc5cc(CN6CC[C@@H](C(=O)O)C6)cc(C#N)c5o4)c3C)c2C)c2ncc(CN3CC[C@](C)(O)C3)cc2n1 [Example 8, (R)-1-((7-cyano-2-(3′-(7-(((S)-3-hydroxy-3-methylpyrrolidin-1-yl)methyl)-2-methylpyrido[3,2-d]pyrimidin-4-ylamino)-2,2′-dimethylbiphenyl-3-yl)benzo[d]oxazol-5-yl)methyl)pyrrolidine-3-carboxylic Acid] | 10 to 100 |
| 10 to 100 | ≤ 10 | ≤ 10 | Cc1nc(Nc2cccc(-c3cccc(-c4nc5cc(CN6CCC(C(=O)O)CC6)cc(C#N)c5o4)c3C)c2C)c2ncc(CN3CC[C@](C)(O)C3)cc2n1 [Example 3, (S)-1-((7-cyano-2-(3′-(7-((3-hydroxy-3-methylpyrrolidin-1-yl)methyl)-2-methylpyrido[3,2-d]pyrimidin-4-ylamino)-2,2′-dimethylbiphenyl-3-yl)benzo[d]oxazol-5-yl)methyl)piperidine-4-carboxylic Acid] | 10 to 100 |
| – | ≤ 10 | ≤ 10 | Cc1nc(Nc2cccc(-c3cccc(-c4nc5cc(CN6CC[C@@H](C(=O)O)C6)cc(C#N)c5o4)c3C)c2C)c2ncc(CN[C@@H](C)CO)cc2n1 [Example 9, (R)-1-((7-cyano-2-(3′-(7-(((S)-1-hydroxypropan-2-ylamino)methyl)-2-methylpyrido[3,2-d]pyrimidin-4-ylamino)-2,2′-dimethylbiphenyl-3-yl)benzo[d]oxazol-5-yl)methyl)pyrrolidine-3-carboxylic Acid] | 10 to 100 |
| 100 to 500 | 10 to 100 | ≤ 10 | Cc1c(Nc2nc(C3CC3)nc3cc(CN4CC[C@@H](O)C4)cnc23)cccc1-c1cccc(-c2nc3cc(CN4CC[C@@H](C(=O)O)C4)cc(C#N)c3o2)c1C [Example 28, (R)-1-((7-cyano-2-(3′-(2-cyclopropyl-7-(((R)-3-hydroxypyrrolidin-1-yl)methyl)pyrido[3,2-d]pyrimidin-4-ylamino)-2,2′-dimethylbiphenyl-3-yl)benzo[d]oxazol-5-yl)methyl)pyrrolidine-3-carboxylic Acid] | 10 to 100 |
| – | ≤ 10 | ≤ 10 | Cc1nc(Nc2cccc(-c3cccc(-c4nc5cc(CN6CC[C@@H](C(=O)O)C6)cc(C#N)c5o4)c3C)c2C)c2ncc(CNC[C@H](C)O)cc2n1 [Example 10, (R)-1-((7-cyano-2-(3′-(7-(((S)-2-hydroxypropylamino)methyl)-2-methylpyrido[3,2-d]pyrimidin-4-ylamino)-2,2′-dimethylbiphenyl-3-yl)benzo[d]oxazol-5-yl)methyl)pyrrolidine-3-carboxylic Acid] | 10 to 100 |
| 10 to 100 | ≤ 10 | – | Cc1c(Nc2nc(C(F)(F)F)nc3cc(CN4CC[C@@H](O)C4)cnc23)cccc1-c1cccc(-c2nc3cc(CN4CCC(C(=O)O)CC4)cc(C#N)c3o2)c1C [Example 19, (R)-1-((7-cyano-2-(3′-(7-((3-hydroxypyrrolidin-1-yl)methyl)-2-(trifluoromethyl)pyrido[3,2-d]pyrimidin-4-ylamino)-2,2′-dimethylbiphenyl-3-yl)benzo[d]oxazol-5-yl)methyl)piperidine-4-carboxylic Acid] | 10 to 100 |
| 10 to 100 | ≤ 10 | – | Cc1cc2cc(CN3CC[C@@H](O)C3)cnc2c(Nc2cccc(-c3cccc(-c4nc5cc(CN6CC[C@@H](C(=O)O)C6)cc(C#N)c5o4)c3C)c2C)n1 [Example 33, (R)-1-((7-cyano-2-(3′-(3-(((R)-3-hydroxypyrrolidin-1-yl)methyl)-6-methyl-1,7-naphthyridin-8-ylamino)-2,2′-dimethylbiphenyl-3-yl)benzo[d]oxazol-5-yl)methyl)pyrrolidine-3-carboxylic Acid] | ≤ 10 |
| 10 to 100 | ≤ 10 | – | Cc1c(Nc2nc(C(F)(F)F)nc3cc(CN4CC[C@@H](O)C4)cnc23)cccc1-c1cccc(-c2nc3cc(CN4CC[C@@H](C(=O)O)C4)cc(C#N)c3o2)c1C [Example 20, (R)-1-((7-cyano-2-(3′-(7-(((R)-3-hydroxypyrrolidin-1-yl)methyl)-2-(trifluoromethyl)pyrido[3,2-d]pyrimidin-4-ylamino)-2,2′-dimethylbiphenyl-3-yl)benzo[d]oxazol-5-yl)methyl)pyrrolidine-3-carboxylic Acid] | 10 to 100 |
| – | ≤ 10 | ≤ 10 | Cc1nc(Nc2cccc(-c3cccc(-c4nc5cc(CN6CC[C@@](C)(C(=O)O)C6)cc(C#N)c5o4)c3C)c2C)c2ncc(CNC[C@H](C)O)cc2n1 [Example 15, (R)-1-((7-cyano-2-(3′-(7-(((S)-2-hydroxypropylamino)methyl)-2-methylpyrido[3,2-d]pyrimidin-4-ylamino)-2,2′-dimethylbiphenyl-3-yl)benzo[d]oxazol-5-yl)methyl)-3-methylpyrrolidine-3-carboxylic Acid] | 10 to 100 |
